We go through 44 compounds from ChEMBL document CHEMBL4130413, “1-Aryl-1H- and 2-aryl-2H-1,2,3-triazole derivatives blockade P2X7 receptor in vitro and inflammatory response in vivo” (Eur J Med Chem, 2017).

A word on the inhibition: it is the share of the control response that was lost under treatment.

Active and inactive are the calls of the source. No cut-off for these calls is given here.

One data set relates to Peritoneal macrophage. The data set is described as follows: Toxicity in Swiss mouse peritoneal macrophages assessed as LDH release at 10 uM after 60 mins relative to 0.05% Triton X-100. The data set is classed as cell-based. The note with it: 1 h. On the technique in general: LDH leaks from cells whose membrane has failed.
The target of data set [1] is T1, P2X purinoceptor 7 (Homo sapiens) (UniProt Q99572).
T1 sequence (whole entry): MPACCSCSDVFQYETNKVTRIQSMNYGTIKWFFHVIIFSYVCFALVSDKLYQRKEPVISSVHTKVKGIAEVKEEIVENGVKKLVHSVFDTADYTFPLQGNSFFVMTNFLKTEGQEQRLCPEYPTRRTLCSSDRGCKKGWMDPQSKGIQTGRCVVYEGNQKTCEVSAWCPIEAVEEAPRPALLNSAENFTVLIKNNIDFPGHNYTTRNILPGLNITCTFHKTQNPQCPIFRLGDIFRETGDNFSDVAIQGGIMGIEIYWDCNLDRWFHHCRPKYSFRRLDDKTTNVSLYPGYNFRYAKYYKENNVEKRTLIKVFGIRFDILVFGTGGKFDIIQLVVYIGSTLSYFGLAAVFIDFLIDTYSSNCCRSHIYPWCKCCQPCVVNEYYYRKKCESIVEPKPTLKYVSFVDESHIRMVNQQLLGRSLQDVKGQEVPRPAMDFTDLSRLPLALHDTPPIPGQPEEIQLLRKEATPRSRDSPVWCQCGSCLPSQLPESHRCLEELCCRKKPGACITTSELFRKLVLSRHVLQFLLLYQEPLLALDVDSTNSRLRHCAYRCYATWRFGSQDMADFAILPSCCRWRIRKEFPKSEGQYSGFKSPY
The data set is described as follows: Antagonist activity at human P2X7 receptor expressed in HEK293 cells assessed as inhibition of ATP-induced ethidium iodide uptake at 10 uM preincubated for 10 mins followed by ATP addition measured after 20 mins by FLIPR assay relative to 1 mM ATP. The data set is classed as cell-based.

The target in data set [2] is P2X purinoceptor 7 (Mus musculus) (UniProt Q9Z1M0). In words: Antagonist activity at P2X7 receptor in Swiss mouse peritoneal macrophages assessed as inhibition of ATP-induced propidium iodide uptake at 10 uM after 30 mins by FLIPR assay relative to 1 mM ATP.
Data set [3] concerns the target T2, P2X purinoceptor 7 (Mus musculus) (UniProt Q9Z1M0).
T2 sequence (whole entry): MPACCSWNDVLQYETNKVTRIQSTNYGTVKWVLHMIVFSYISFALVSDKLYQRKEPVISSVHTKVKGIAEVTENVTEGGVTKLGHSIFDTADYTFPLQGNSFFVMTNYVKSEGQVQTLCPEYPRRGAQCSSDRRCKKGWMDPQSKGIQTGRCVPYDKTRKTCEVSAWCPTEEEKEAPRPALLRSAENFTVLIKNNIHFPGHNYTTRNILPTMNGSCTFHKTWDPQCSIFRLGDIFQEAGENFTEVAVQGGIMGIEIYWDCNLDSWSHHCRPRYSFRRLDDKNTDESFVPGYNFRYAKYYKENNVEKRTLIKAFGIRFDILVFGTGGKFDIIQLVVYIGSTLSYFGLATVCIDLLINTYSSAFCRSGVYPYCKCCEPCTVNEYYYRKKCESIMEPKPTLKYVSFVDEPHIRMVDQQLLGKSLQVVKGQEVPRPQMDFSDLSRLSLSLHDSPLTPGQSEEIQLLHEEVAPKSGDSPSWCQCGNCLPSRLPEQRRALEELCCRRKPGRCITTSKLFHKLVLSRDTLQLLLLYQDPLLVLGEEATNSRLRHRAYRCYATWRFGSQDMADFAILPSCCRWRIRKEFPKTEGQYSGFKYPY
The data set is described as follows: Antagonist activity at mouse P2X7 receptor expressed in HEK293 cells assessed as inhibition of ATP-induced ethidium iodide uptake at 10 uM preincubated for 10 mins followed by ATP addition measured after 20 mins by FLIPR assay relative to 1 mM ATP. The format is cell-based.

On to `CCOCc1cn(-c2cc(Cl)ccc2Cl)nn1`, for which, in the data set with Peritoneal macrophage, the Activity was 42.66%. Further, the inhibition in data set [1] was found to be 45.3%; in data set [2], 75.5%.
Regarding `CCCCCC(=O)OCc1cn(-c2ccc(Cl)cc2)nn1`, the Activity in the data set on Peritoneal macrophage is reported as 34.19%. Further, the inhibition was 2.2% in data set [1] and 11.1% in data set [2].
For the compound `CCCCCCCCCC(=O)OCc1cn(-c2ccccc2)nn1`, the Activity with Peritoneal macrophage worked out at 42.53%. For the same compound, the inhibition was found to be 23.2% in data set [1] and 60% in data set [2].
For the compound `CCCCOCc1cn(-c2ccc(Cl)cc2)nn1`, the Activity with Peritoneal macrophage is 30.33%. Besides, the inhibition in data set [1] was determined as 15.1%; in data set [2] it was 35.8%.
On to `OCc1cn(-c2ccc(Cl)cc2)nn1`, for which the Activity with Peritoneal macrophage turned out to be 15.57%. Further, the inhibition in data set [1] is 26.1%; in data set [2], 22.5%.
`O=Cc1cn(-c2cc(Cl)ccc2Cl)nn1`: the Activity in the data set on Peritoneal macrophage was 13.73%. Besides, the results for the inhibition in data set [1] and in data set [2] were 44% and 36.7%, respectively.
For `O=C(OCc1cn(-c2ccc(Cl)cc2)nn1)c1ccccc1`, in that order: 45.73%, 26.8% and 60.6%.
On to `CCCCOCc1cnn(-c2ccccc2)n1`, for which, in the data set with Peritoneal macrophage, the Activity turned out to be 27.19%. Further, the values for the inhibition in data set [1] and in data set [2] were 16.1% and 37.1%, respectively.
Regarding `COc1ccc(-n2cc(COC(C)=O)nn2)cc1`, the Activity in the data set with Peritoneal macrophage stood at 15%. Also, the inhibition amounted to 9.12% in data set [1] and 29.4% in data set [2].
As for `CCCCC(=O)OCc1cn(-c2ccc(OC)cc2)nn1`, the Activity in the data set on Peritoneal macrophage stood at 46.3%. Also, in data set [1], the inhibition came out at 8.15%.
As to `OCc1cn(-c2cc(Cl)cc(Cl)c2)nn1`, the Activity in the data set with Peritoneal macrophage came out at 30.55%. For the same compound, the inhibition in data set [1] came to 41.1%; in data set [2] it was 11.4%.
Take `CC(=O)OCc1cn(-c2ccc(Cl)cc2)nn1`: the Activity with Peritoneal macrophage turned out to be 19.66%. The inhibition in data set [1] is 9.89%; in data set [2], 23.2%.
With `CCCCCC(=O)OCc1cn(-c2ccccc2)nn1`, the Activity with Peritoneal macrophage is 15.83%. For the same compound, the inhibition was 18.2% in data set [1] and 44.6% in data set [2].
For the compound `CCCOCc1cn(-c2ccc(Cl)cc2)nn1`, in the data set on Peritoneal macrophage, the Activity amounted to 26.66%. Besides, the inhibition was found to be 62.4% in data set [1] and 32.5% in data set [2].
Turning to `CCCCCCCCCC(=O)OCc1cnn(-c2ccccc2)n1`, the Activity in the data set with Peritoneal macrophage was found to be 42.5%. The inhibition is 19.2% in data set [1] and 29.5% in data set [2].
On to `COc1ccc(-n2cc(C=O)nn2)cc1`, for which the Activity with Peritoneal macrophage was determined as 17.92%. Besides, the values for the inhibition in data set [1] and in data set [2] were 50.3% and 44.3%, respectively.
Take `CCOCc1cn(-c2ccc(OC)cc2)nn1`: the Activity in the data set on Peritoneal macrophage is 20.66%. Besides, the inhibition in data set [1] is 45%; in data set [2], 44.8%.
For `CCOCc1cnn(-c2ccccc2)n1`, in the data set on Peritoneal macrophage, the Activity is 26.49%. Moreover, the inhibition in data set [1] amounted to 79.1%; in data set [2], 70%. Besides, the inhibition entry in data set [3] is “Active”.
On to `CCCOCc1cn(-c2ccc(OC)cc2)nn1`, for which the Activity in the data set with Peritoneal macrophage is given as 13.03%. For the same compound, the inhibition in data set [1] worked out at 35.8%; in data set [2], 15.6%.
In the case of `O=Cc1cnn(-c2ccccc2)n1`, in the data set on Peritoneal macrophage, the Activity came to 41.65%. For the same compound, the inhibition in data set [1] was 42.1%; in data set [2] it was 31.5%.
Take `CC(=O)OCc1cn(-c2cc(Cl)ccc2Cl)nn1`: the Activity with Peritoneal macrophage is given as 32%. Further, the results for the inhibition in data set [1] and in data set [2] were 71.2% and 76.6%, respectively.
Consider `COc1ccc(-n2cc(COC(=O)c3ccccc3)nn2)cc1`, for which the Activity in the data set with Peritoneal macrophage is 10.66%. Also, the values for the inhibition in data set [1] and in data set [2] were 10.6% and 24.4%, respectively.
Taken in the same sequence, the figures for `CCCCOCc1cn(-c2ccc(OC)cc2)nn1` were 27.66%, 51.3% and 31.4%.
For `CC(=O)OCc1cn(-c2ccccc2)nn1`, the Activity in the data set with Peritoneal macrophage is reported as 36.39%. Moreover, the results for the inhibition in data set [1] and in data set [2] were 81% and 84%, respectively.
For the compound `O=C(OCc1cn(-c2cc(Cl)ccc2Cl)nn1)c1ccccc1`, in the data set on Peritoneal macrophage, the Activity was 26.66%. Besides, the inhibition in data set [1] worked out at 3%; in data set [2], 11%.
Turning to `O=C(OCc1cn(-c2cc(Cl)cc(Cl)c2)nn1)c1ccccc1`, in the data set on Peritoneal macrophage, the Activity stood at 24.02%. Further, the inhibition was found to be 2.96% in data set [1] and 14.2% in data set [2].
Taken in the same sequence, the figures for `O=C(OCc1cn(-c2ccccc2)nn1)c1ccccc1` were 58.1%, 16.1% and 32.1%.
Consider `CCCOCc1cn(-c2ccccc2)nn1`, for which the Activity in the data set with Peritoneal macrophage is on record as 14.66%. Moreover, the inhibition in data set [1] is 20.1%; in data set [2] it was 25.1%.
For the compound `CCOCc1cn(-c2ccccc2)nn1`, the Activity in the data set on Peritoneal macrophage worked out at 52.73%. The inhibition is 56.7% in data set [1] and 49.3% in data set [2].
As for `O/N=C/c1cn(-c2cc(Cl)cc(Cl)c2)nn1`, the Activity in the data set with Peritoneal macrophage came to 29.47%. The inhibition in data set [1] was found to be 62.1%; in data set [2] it was 58%.
With `CCCCCCCCCC(=O)OCc1cn(-c2cc(Cl)ccc2Cl)nn1`, in the data set on Peritoneal macrophage, the Activity is 10%. Besides, the inhibition in data set [1] was found to be 1.17%; in data set [2], 9.86%.
Taken in the same sequence, the figures for `CCCOCc1cn(-c2cc(Cl)cc(Cl)c2)nn1` were 14.03%, 33.7% and 24%.
As for `O=C(OCc1cnn(-c2ccccc2)n1)C1CCCC1`, in the data set with Peritoneal macrophage, the Activity came to 43.04%. In addition, the inhibition in data set [1] was 10.2%; in data set [2], 29.6%.
As to `CCCOCc1cn(-c2cc(Cl)ccc2Cl)nn1`, in the data set with Peritoneal macrophage, the Activity is recorded as 22.66%. The inhibition was determined as 46.6% in data set [1] and 24% in data set [2].
As to `O=C(OCc1cn(-c2cc(Cl)ccc2Cl)nn1)C1CCCC1`, in the data set with Peritoneal macrophage, the Activity amounted to 22.66%. In addition, the inhibition in data set [1] was 7.28%; in data set [2], 20.6%.
For the compound `O=C(OCc1cnn(-c2ccccc2)n1)c1ccccc1`, the Activity in the data set with Peritoneal macrophage is given as 36.94%. Also, the results for the inhibition in data set [1] and in data set [2] were 88.2% and 81.3%, respectively.
Take `CCCCOCc1cn(-c2ccccc2)nn1`: the Activity with Peritoneal macrophage is 32.33%. Moreover, the inhibition in data set [1] stood at 67.5%; in data set [2], 78.1%. In addition, the inhibition result in data set [3] was “Active”.
As to `O/N=C/c1cn(-c2ccccc2)nn1`, the Activity with Peritoneal macrophage was 28.59%. Moreover, the inhibition in data set [1] was found to be 64.3%; in data set [2] it was 58%.
In the case of `CC(=O)OCc1cnn(-c2ccccc2)n1`, the Activity with Peritoneal macrophage was 38.5%. Besides, the results for the inhibition in data set [1] and in data set [2] were 80.1% and 73.5%, respectively.
`CCCOCc1cnn(-c2ccccc2)n1`: the Activity with Peritoneal macrophage was determined as 13.33%. Further, the results for the inhibition in data set [1] and in data set [2] were 41.2% and 26.6%, respectively.
`OCc1cn(-c2ccccc2)nn1`: in the data set on Peritoneal macrophage, the Activity is 20.98%. The inhibition in data set [1] worked out at 30.1%; in data set [2] it was 10.9%.
For `CC(=O)OCc1cn(-c2cc(Cl)cc(Cl)c2)nn1`, the Activity in the data set with Peritoneal macrophage is on record as 45.33%. The inhibition turned out to be 29.4% in data set [1] and 65.2% in data set [2].
For the compound `OCc1cn(-c2cc(Cl)ccc2Cl)nn1`, in the data set with Peritoneal macrophage, the Activity was 12.09%. Besides, the inhibition in data set [1] came to 38.1%; in data set [2] it was 28.3%.
Take `CCOCc1cn(-c2cc(Cl)cc(Cl)c2)nn1`: the Activity in the data set on Peritoneal macrophage turned out to be 34%. Further, the inhibition in data set [1] was found to be 51.2%; in data set [2] it was 36.5%.
